Like-named read-outs stand apart in the source and are kept apart here. A value given as a limit tells only on which side of the number the result lay.

The results in this text go back to patent US5616615A, “Enaminone esters” (priority 1995, dated 1997).

The test system of series [1] is Maximal electroshock seizures. Description: MES maximal electroshock seizure test, mice ip. Conditions: ip. Format: in vivo. Set-up: TPE (time of peak effect), activity: unit not given here. On the procedure:
Three tests were performed:
1. MES--Electroshock Seizure Test
(§1) Maximal electroshock seizures are elicited with a 60-cycle alternating current of 50 mA intensity (5-7 times that necessary to elicit minimal electroshock seizures) delivered via corneal electrodes for 0.2 seconds. A drop of 0.9% saline is instilled in the eye prior to application of the electrodes in order to […].

Series [2] concerns Subcutaneous Pentylenetetrazol seizure. The series can be described thus: sc Met subcutaneous pentylenetetrazol (Metrazol) seizure test, mice. The format is in vivo. Conditions: Mus musculus, sc.
Series [3] can be described thus: Tox rotorod neurotoxicity, mice ip. Conditions: for Tox, animals exhibiting toxicity/tested: 300 mg/kg; for Tox (rotorod), animals toxic/tested: 100 mg/kg. As for the experimental part:
(§2) The first phase of the ADD Program involved performing tests on male Carworth Farms #1 mice. […] Three tests were performed:
In the second phase of the ADD program protocol, estimates of anticonvulsant activity and neurotoxicity are quantified. The median effective dose (ED50) in the MES, sc Met, and rotorod test is determined. In the case of a compound with apparent activity in only one anticonvulsant test, testing is carried out in the other up to, and in some cases beyond, doses which produce neurological deficit. Compounds which fail to produce minimal neurological deficit are tested whenever possible to doses ten times their lowest anticonvulsant ED50. […] The rotorod ED50 is determined at the time of the peak neurologic deficit.

A further series relates to seizures. The series can be described thus: Anticonvulsant evaluation (ASP phase I / overall). Format: in vivo, mice. The note with it: Mus musculus, ip, read-out: ASP Classification. As for the experimental part: as §2, §1
The animal is observed for 30 minutes.

Series [4] relates to Maximal electroshock seizures. The series can be described thus: Phase VI oral MES test, rats. The note with it: Rattus norvegicus, oral, 50 mg/kg, read-out: MES, animals protected/tested (converted). Format: in vivo.
Description: as §1
(§3) This oral screen is designated as phase VI.

A further series in a line: in vivo. The note with it: rat, po, 50 mg/kg.
Description: as §3

The mark [5] stands for this setting: Mus musculus, 0.5 h, 300 mg/kg, 30 min, read-out: MES, animals protected/tested.
[6] abbreviates: Mus musculus, 4 h, 300 mg/kg, 4 h, read-out: MES, animals protected/tested.
Setting [7] is: 0.5 h, 300 mg/kg, 30 min, read-out: scMet, animals protected/tested (converted).
Where [8] appears, read: 4 h, 300 mg/kg, 4 h, read-out: scMet, animals protected/tested (converted).
Where [9] appears, read: Mus musculus, 0.5 h, 100 mg/kg, 30 min, read-out: MES, animals protected/tested (converted).
Where [10] appears, read: Mus musculus, 4 h, 100 mg/kg, 4 h, read-out: MES, animals protected/tested (converted).
[11] abbreviates: 0.5 h, 30 min, read-out: scMet, animals protected/tested (converted).
Where [12] appears, read: 4 h, 4 h, read-out: scMet, animals protected/tested (converted).

On to `CC1(C)CC(=O)C=C(NCCc2ccccc2)C1` [Compound 145], for which the responders at 100 mg/kg was determined as 0% in series [1] (Mus musculus, 0.25 h, read-out: MES, animals protected/tested) and 0% in series [1] (Mus musculus, 1 h, read-out: MES, animals protected/tested). Moreover, the responders at 300 mg/kg in series [1] (Mus musculus, 0.5 h, read-out: MES, animals protected/tested) was determined as 100%; in series [1] (Mus musculus, 4 h, read-out: MES, animals protected/tested) it was 0%; in series [2] (0.5 h, read-out: scMet, animals protected/tested), 0%; in series [2] (4 h, read-out: scMet, animals protected/tested) it was 0%. Moreover, the “Tox, animals exhibiting toxicity/tested” value in series [3] (30 min) is 4/4; in series [3] (4 h), 0/2. The “Tox (rotorod), animals toxic/tested” value in series [3] (Phase II, 0.25 h) is on record as 0/2; in series [3] (Phase II, 1.00 h), 0/2. Moreover, the minimal effective dose in the series with seizures is greater than 100 mg/kg.

On to `CCOC(=O)C1C(=O)C=C(Nc2cc(OC)ccc2OC)CC1C` (centres unmarked) [Compound 128], for which the responders at 100 mg/kg was 0% in series [1] (Mus musculus, 0.25 h, Phase II, 100 mg/kg, 0.25 h, read-out: MES, animals protected/tested (converted)) and 0% in series [1] (Mus musculus, 1 h, Phase II, 100 mg/kg, 1.00 h, read-out: MES, animals protected/tested (converted)). Moreover, the responders at 300 mg/kg in series [1] (setting [5]) is 100%; in series [1] (setting [6]), 0%; in series [2] (setting [7]) it was 0%; in series [2] (setting [8]), 0%. The “Tox (rotorod), animals toxic/tested” value in series [3] (mouse, in vivo) is given as 0/2. Also, in the series on seizures (Phase I), the minimal effective dose was greater than 100 mg/kg.

Regarding `CCCC(CCC)C(=O)O` [valproate, reference compound], it took a dose of 665 mg/kg to reach the 50% effect level in series [1] (Mus musculus, Phase II, time of peak effect) (ED50). Moreover, the “TPE (time of peak effect), activity” value in series [1] (Phase II) came out at 1. Besides, in series [3] (Phase II, ip, commercial products, onset of ataxia), the “TPE (time of peak effect), toxicity” value came to 2.

For the compound `O=C1C=C(Nc2ccc(Cl)cc2)CCC1` [Compound 147], the responders at 100 mg/kg in series [1] (setting [9]) is 100%; in series [1] (setting [10]), 0%; in series [2] (setting [11]) it was 0%; in series [2] (setting [12]) it was 0%. In addition, the responders at 300 mg/kg in series [1] (setting [5]) is 100%; in series [1] (setting [6]), 100%; in series [2] (setting [7]), 0%; in series [2] (setting [8]), 0%. Also, the responders at 50 mg/kg in series [4] (0.5 h, 0.50 h) was 100%; in series [4] (0.25 h), 75%; in series [4] (1.00 h) it was 50%; in series [4] (2.00 h), 25%; in series [4] (4.00 h) it was 25%. Besides, in “in vivo”, the “Tox, animals toxic/tested” value is on record as 0/4. In addition, the minimal effective dose in the series with seizures (Phase I) is less than 100 mg/kg.

In the case of `O=C1C=C(Nc2ccc(Cl)cc2)CC1` [Compound 152, 3-(4'-Chlorophenyl)amino-2-cyclopentenone], the responders at 100 mg/kg in series [1] (setting [9]) is 33.3%; in series [1] (setting [10]), 0%; in series [2] (setting [11]), 0%; in series [2] (setting [12]), 0%. Moreover, the responders at 300 mg/kg in series [1] (setting [5]) is 100%; in series [1] (setting [6]), 0%; in series [2] (setting [7]), 0%; in series [2] (setting [8]), 0%. The responders at 50 mg/kg was 25% in series [4] (0.5 h, 0.50 h); 0% in series [4] (0.25 h); 25% in series [4] (1.00 h); 75% in series [4] (2.00 h); 50% in series [4] (4.00 h). The “Tox, animals toxic/tested” value in “in vivo” is 0/4. The minimal effective dose with seizures (Phase I) is less than 100 mg/kg.

On to `CC(C)(C)c1ccc(NC2=CC(=O)CCC2)cc1` [Compound 150], for which the responders at 100 mg/kg in series [1] (setting [9]) was 100%; in series [1] (setting [10]), 0%; in series [2] (setting [11]), 0%; in series [2] (setting [12]) it was 0%. For the same compound, the responders at 300 mg/kg in series [1] (setting [5]) was 100%; in series [1] (setting [6]), 100%; in series [2] (setting [7]), 60%; in series [2] (setting [8]), 0%. For the same compound, the responders at 50 mg/kg is 50% in series [4] (0.5 h, 0.50 h); 50% in series [4] (0.25 h); 75% in series [4] (1.00 h); 25% in series [4] (2.00 h); 50% in series [4] (4.00 h). For the same compound, the “Tox, animals toxic/tested” value in “in vivo” is 0/4. Besides, the minimal effective dose in the series on seizures (Phase I) is less than 100 mg/kg.

On to `CCOC(=O)C1C(=O)C=C(Nc2ccc(F)cc2)CC1C` (centres unmarked) [Compound 124], for which the responders at 100 mg/kg in series [1] (setting [9]) is 100%; in series [1] (setting [10]) it was 0%; in series [2] (setting [11]) it was 0%; in series [2] (setting [12]) it was 0%. Also, the responders at 300 mg/kg in series [1] (setting [5]) was 100%; in series [1] (setting [6]), 0%; in series [2] (0.5 h, 300 mg/kg, 30 min, second trial, read-out: scMet, animals protected/tested (converted)), 50%; in series [2] (setting [7]), 100%; in series [2] (setting [8]), 0%. Also, the responders at 50 mg/kg was 100% in series [4] (0.5 h, 0.50 h); 100% in series [4] (0.25 h); 100% in series [4] (1.00 h); 100% in series [4] (2.00 h); 75% in series [4] (4.00 h). In “in vivo”, the “Tox, animals toxic/tested” value is recorded as 0/4. Further, in the series on seizures (Phase I), the minimal effective dose is less than 100 mg/kg.

As to `O=C1C=C(Nc2ccc(C(F)(F)F)cc2)CCC1` [Compound 151], the responders at 100 mg/kg in series [1] (setting [9]) is 100%; in series [1] (setting [10]), 0%; in series [2] (setting [11]) it was 0%; in series [2] (setting [12]), 0%. Besides, the responders at 300 mg/kg in series [1] (setting [5]) was 100%; in series [1] (setting [6]), 100%; in series [2] (setting [7]) it was 0%; in series [2] (setting [8]) it was 0%. Further, the responders at 50 mg/kg in series [4] (0.5 h, 0.50 h) was 25%; in series [4] (0.25 h) it was 75%; in series [4] (1.00 h) it was 25%; in series [4] (2.00 h), 50%; in series [4] (4.00 h), 0%. Besides, in “in vivo”, the “Tox, animals toxic/tested” value is listed as 0/4. Besides, the minimal effective dose in the series on seizures (Phase I) is less than 100 mg/kg.

On to `O=C1C=C(NCc2ccccc2)CCC1` [Compound 148], for which the responders at 100 mg/kg in series [1] (setting [9]) is 100%; in series [1] (setting [10]), 0%; in series [2] (setting [11]), 0%; in series [2] (setting [12]), 0%. Moreover, the responders at 300 mg/kg in series [1] (setting [5]) was 100%; in series [1] (setting [6]), 0%; in series [2] (setting [7]) it was 0%; in series [2] (setting [8]) it was 0%. Besides, the responders at 50 mg/kg is 50% in series [4] (0.5 h, 0.50 h); 0% in series [4] (0.25 h); 50% in series [4] (1.00 h); 50% in series [4] (2.00 h); 75% in series [4] (4.00 h). The “Tox, animals toxic/tested” value in the series “in vivo” was 0/4. The minimal effective dose in the series with seizures (Phase I) is less than 100 mg/kg.

Take `CC1CC(=O)C=C(Nc2ccc(Cl)cc2)C1` (centres unmarked) [Compound 146, 3-[(p-Chlorophenyl)amino]-5-methyl-2-cyclohexen-1-one]: the responders at 100 mg/kg was 100% in series [1] (setting [9]), 0% in series [1] (setting [10]), 0% in series [2] (setting [11]) and 0% in series [2] (setting [12]). In addition, the responders at 300 mg/kg in series [1] (setting [5]) is 100%; in series [1] (setting [6]), 100%; in series [2] (setting [7]), 40%; in series [2] (setting [8]) it was 0%. For the same compound, the responders at 50 mg/kg in series [4] (0.5 h, 0.50 h) is 75%; in series [4] (0.25 h), 25%; in series [4] (1.00 h), 100%; in series [4] (2.00 h), 100%; in series [4] (4.00 h) it was 50%. Besides, the “Tox, animals toxic/tested” value in the series “in vivo” is on record as 0/4. In the series on seizures (Phase I), the minimal effective dose was less than 100 mg/kg.

A word on the ED50: it is the midpoint of the dose-response relation.
